Type in all cases: functional, cell-based
Assay [1] deals with PANC-1. The assay can be described thus: Cytotoxicity against human PANC-1 cells assessed as reduction in cell viability by CCK-8 assay. On the technique in general: Tetrazolium assays rely on reduction of a dye to a coloured formazan, in cell work by metabolically active cells.
Assay [2] relates to HepG2. Description: Cytotoxicity against human HepG2 cells assessed as reduction in cell viability by CCK-8 assay.
Assay [3] concerns PC-3M. The assay can be described thus: Cytotoxicity against human PC-3M cells assessed as reduction in cell viability by CCK-8 assay.
Assay [4] concerns MCF7. Description: Cytotoxicity against human MCF7 cells assessed as reduction in cell viability by CCK-8 assay.
In assay [5] the test system is A549. The assay can be described thus: Cytotoxicity against human A549 cells assessed as reduction in cell viability by CCK-8 assay.

Molecules are shown by their SMILES.

Regarding `C=C(C)[C@@H]1CC[C@]2(C(=O)OCCCCCCCCCCn3ccnc3C)CC[C@]3(C)[C@H](C[C@@H](O)[C@@H]4[C@@]5(C)C(CC(=O)OC)OC(C)(C)C5CC[C@]43C)[C@@H]12` (stereo not given in full), the IC50 (in general, the concentration that gives 50% inhibition) amounted to 7.95 µM in assay [1]; 4.91 µM in assay [2]; 10.3 µM in assay [3]; 19.4 µM in assay [4]; 19.5 µM in assay [5].
Taken in the same sequence, the figures for `C=C(C)[C@@H]1CC[C@]2(C(=O)OCCCCCBr)CC[C@]3(C)[C@H](C[C@@H](O)[C@@H]4[C@@]5(C)C(CC(=O)OC)OC(C)(C)C5CC[C@]43C)[C@@H]12` (stereo not given in full) were 54.9 µM, 27.7 µM, 44.1 µM, 80 µM and 40.6 µM.
Taken in the same sequence, the figures for `C=C(C)[C@@H]1CC[C@]2(C(=O)OCCCCn3cncn3)CC[C@]3(C)[C@H](C[C@H]4OC(=O)C[C@@H](O)[C@]5(C)[C@@H]4[C@@]3(C)CC[C@H]5C(=C)C)[C@@H]12` were 60.5 µM, 110 µM, 18.1 µM, 46.2 µM and 31.3 µM.
The like results for `C=C(C)[C@@H]1CC[C@]2(C(=O)OCCCCCCn3ccnc3CC)CC[C@]3(C)[C@H](C[C@@H](O)[C@@H]4[C@@]5(C)C(CC(=O)OC)OC(C)(C)C5CC[C@]43C)[C@@H]12` (stereo not given in full) were, in that order, 18.5 µM, 16.9 µM, 19.6 µM, 34.5 µM and 24.1 µM.
As to `C=C(C)[C@@H]1CC[C@]2(C(=O)OCCCCCCn3cnc(C)c3)CC[C@]3(C)[C@H](C[C@H]4OC(=O)C[C@@H](O)[C@]5(C)[C@@H]4[C@@]3(C)CC[C@H]5C(=C)C)[C@@H]12`, the IC50 came out at 13.3 µM in assay [1]; 3.64 µM in assay [2]; 12.2 µM in assay [3]; 44.9 µM in assay [4]; 14.2 µM in assay [5].
Taken in the same sequence, the figures for `C=C(C)[C@@H]1CC[C@]2(C(=O)OCCCCCCCCCCn3ccnc3)CC[C@]3(C)[C@H](C[C@@H](O)[C@@H]4[C@@]5(C)C(CC(=O)OC)OC(C)(C)C5CC[C@]43C)[C@@H]12` (stereo not given in full) were 14 µM, 6.83 µM, 14 µM, 36.1 µM and 22.4 µM.
For `C=C(C)[C@@H]1CC[C@]2(C(=O)OCCCCn3cc(CCN)c4ccccc43)CC[C@]3(C)[C@H](C[C@@H](O)[C@@H]4[C@@]5(C)C(CC(=O)OC)OC(C)(C)C5CC[C@]43C)[C@@H]12` (stereo not given in full), the IC50 in assay [1] is 6.42 µM; in assay [2], 1.7 µM; in assay [3], 5.66 µM; in assay [4] it was 6.25 µM; in assay [5] it was 7.05 µM.
As to `C=C(C)[C@@H]1CC[C@]2(C(=O)OCCCCn3ccnc3C)CC[C@]3(C)[C@H](C[C@H]4OC(=O)C[C@@H](O)[C@]5(C)[C@@H]4[C@@]3(C)CC[C@H]5C(=C)C)[C@@H]12`, the IC50 was 56.5 µM in assay [1]; 27.8 µM in assay [2]; 30 µM in assay [3]; 77.6 µM in assay [4]; 48.4 µM in assay [5].
Taken in the same sequence, the figures for `C=C(C)[C@@H]1CC[C@]2(C(=O)OCCCCCn3ccnc3CC)CC[C@]3(C)[C@H](C[C@@H](O)[C@@H]4[C@@]5(C)C(CC(=O)OC)OC(C)(C)C5CC[C@]43C)[C@@H]12` (stereo not given in full) were 26.8 µM, 14.1 µM, 23.9 µM, 45.5 µM and 25.9 µM.
Regarding `C=C(C)[C@@H]1CC[C@]2(C(=O)OCCCCCn3ccnc3)CC[C@]3(C)[C@H](C[C@@H](O)[C@@H]4[C@@]5(C)C(CC(=O)OC)OC(C)(C)C5CC[C@]43C)[C@@H]12` (stereo not given in full), the IC50 in assay [1] is 50 µM; in assay [2], 24.6 µM; in assay [3], 30.6 µM; in assay [4], 65.1 µM; in assay [5], 34.9 µM.
The like results for `C=C(C)[C@@H]1CC[C@]2(C(=O)OCCCCCCCCCCn3ccnc3CC)CC[C@]3(C)[C@H](C[C@H]4OC(=O)C[C@@H](O)[C@]5(C)[C@@H]4[C@@]3(C)CC[C@H]5C(=C)C)[C@@H]12` were, in that order, 9.93 µM, 4.36 µM, 13.9 µM, 30.9 µM and 15.1 µM.
Taken in the same sequence, the figures for `C=C(C)[C@@H]1CC[C@]2(C(=O)OCCCCCCCCCCn3cnc(C)c3)CC[C@]3(C)[C@H](C[C@H]4OC(=O)C[C@@H](O)[C@]5(C)[C@@H]4[C@@]3(C)CC[C@H]5C(=C)C)[C@@H]12` were 9.92 µM, 5.79 µM, 13.9 µM, 35.8 µM and 16.7 µM.
Taken in the same sequence, the figures for `C=C(C)[C@@H]1CC[C@]2(C(=O)OCCCBr)CC[C@]3(C)[C@H](C[C@H]4OC(=O)C[C@@H](O)[C@]5(C)[C@@H]4[C@@]3(C)CC[C@H]5C(=C)C)[C@@H]12` were > 200 µM, > 200 µM, 109 µM, > 200 µM and 136 µM.
`C=C(C)[C@@H]1CC[C@]2(C(=O)OCCCn3cc(CCN)c4ccccc43)CC[C@]3(C)[C@H](C[C@H]4OC(=O)C[C@@H](O)[C@]5(C)[C@@H]4[C@@]3(C)CC[C@H]5C(=C)C)[C@@H]12`: the IC50 in assay [1] amounted to 9.59 µM; in assay [2], 1.78 µM; in assay [3] it was 6.28 µM; in assay [4], 11.8 µM; in assay [5], 7.21 µM.
The like results for `C=C(C)[C@@H]1CC[C@]2(C(=O)OCCCCCCCCCCn3ccnc3C)CC[C@]3(C)[C@H](C[C@H]4OC(=O)C[C@@H](O)[C@]5(C)[C@@H]4[C@@]3(C)CC[C@H]5C(=C)C)[C@@H]12` were, in that order, 10.1 µM, 3.02 µM, 8.63 µM, 23.5 µM and 11.7 µM.
`C=C(C)[C@@H]1CC[C@]2(C(=O)OCCCCCn3cnc(C)c3)CC[C@]3(C)[C@H](C[C@H]4OC(=O)C[C@@H](O)[C@]5(C)[C@@H]4[C@@]3(C)CC[C@H]5C(=C)C)[C@@H]12`: the IC50 in assay [1] worked out at 26.5 µM; in assay [2] it was 10.6 µM; in assay [3], 14.8 µM; in assay [4], 95.8 µM; in assay [5], 12.9 µM.
Taken in the same sequence, the figures for `C=C(C)[C@@H]1CC[C@]2(C(=O)O)CC[C@]3(C)[C@H](C[C@@H](O)[C@@H]4[C@@]5(C)C(CC(=O)OC)OC(C)(C)C5CC[C@]43C)[C@@H]12` (stereo not given in full) were > 200 µM, > 200 µM, 103 µM, > 200 µM and > 200 µM.
The like results for `C=C(C)[C@@H]1CC[C@]2(C(=O)OCCCCCCn3ccnc3)CC[C@]3(C)[C@H](C[C@H]4OC(=O)C[C@@H](O)[C@]5(C)[C@@H]4[C@@]3(C)CC[C@H]5C(=C)C)[C@@H]12` were, in that order, 45.3 µM, 14.5 µM, 23.2 µM, 47.1 µM and 24 µM.
Taken in the same sequence, the figures for `C=C(C)[C@@H]1CC[C@]2(C(=O)OCCCn3ccnc3C)CC[C@]3(C)[C@H](C[C@@H](O)[C@@H]4[C@@]5(C)C(CC(=O)OC)OC(C)(C)C5CC[C@]43C)[C@@H]12` (stereo not given in full) were 50.6 µM, 22.6 µM, 34.4 µM, 69.5 µM and 24.9 µM.
On to `C=C(C)[C@@H]1CC[C@]2(C(=O)OCCCCCCn3cncn3)CC[C@]3(C)[C@H](C[C@H]4OC(=O)C[C@@H](O)[C@]5(C)[C@@H]4[C@@]3(C)CC[C@H]5C(=C)C)[C@@H]12`, for which the IC50 in assay [1] was 19.5 µM; in assay [2] it was 23.8 µM; in assay [3], 56 µM; in assay [4], 103 µM; in assay [5], 24.6 µM.
For the molecule `C=C(C)[C@@H]1CC[C@]2(C(=O)OCCCCCCCCCCBr)CC[C@]3(C)[C@H](C[C@@H](O)[C@@H]4[C@@]5(C)C(CC(=O)OC)OC(C)(C)C5CC[C@]43C)[C@@H]12` (stereo not given in full), the IC50 is 15.1 µM in assay [1]; 15.1 µM in assay [2]; 16.6 µM in assay [3]; 88.5 µM in assay [4]; 34.6 µM in assay [5].
In the case of `C=C(C)[C@@H]1CC[C@]2(C(=O)OCCCCCCCCCCBr)CC[C@]3(C)[C@H](C[C@H]4OC(=O)C[C@@H](O)[C@]5(C)[C@@H]4[C@@]3(C)CC[C@H]5C(=C)C)[C@@H]12`, the IC50 in assay [1] amounted to 23.1 µM; in assay [2], 10.9 µM; in assay [3], 17.3 µM; in assay [4] it was 53.9 µM; in assay [5] it was 22 µM.
Taken in the same sequence, the figures for `C=C(C)[C@@H]1CC[C@]2(C(=O)OCCCn3cncn3)CC[C@]3(C)[C@H](C[C@H]4OC(=O)C[C@@H](O)[C@]5(C)[C@@H]4[C@@]3(C)CC[C@H]5C(=C)C)[C@@H]12` were 140 µM, > 200 µM, 34 µM, 51.2 µM and 45.2 µM.
In the case of `C=C(C)[C@@H]1CC[C@]2(C(=O)OCCCCCCCCCCn3cc(CCN)c4ccccc43)CC[C@]3(C)[C@H](C[C@H]4OC(=O)C[C@@H](O)[C@]5(C)[C@@H]4[C@@]3(C)CC[C@H]5C(=C)C)[C@@H]12`, the IC50 came out at 5.59 µM in assay [1]; 1.68 µM in assay [2]; 5.69 µM in assay [3]; 5.48 µM in assay [4]; 6.59 µM in assay [5].
Taken in the same sequence, the figures for `C=C(C)[C@@H]1CC[C@]2(C(=O)OCCCCn3cncn3)CC[C@]3(C)[C@H](C[C@@H](O)[C@@H]4[C@@]5(C)C(CC(=O)OC)OC(C)(C)C5CC[C@]43C)[C@@H]12` (stereo not given in full) were 58.6 µM, 26.1 µM, 45.3 µM, 75.2 µM and 42.4 µM.
